In ChEMBL document CHEMBL1156658, “Antifungal cyclic depsipeptide, eujavanicin A, isolated from Eupenicillium javanicum” (2008) one finds Activity and zone of inhibition data, which are given here for 2 molecules.

The source made the active and inactive calls. The rule behind the calls is not given here. Non-standard residues stand in square brackets, D forms with d. Residues, ends and D or L forms follow the SMILES beside them. NMeI = CC[C@H](C)[C@H](NC)C(=O)O; NMeD = CN[C@@H](CC(=O)O)C(=O)O; NMeV = CN[C@H](C(=O)O)C(C)C; Pip = O=C(O)[C@@H]1CCCCN1; Lac = C[C@H](O)C(=O)O

Experiment [1] deals with Aspergillus fumigatus. The experiment is described as follows: Antifungal activity against Aspergillus fumigatus. The class given is functional, organism-based.
For experiment [2], the system named is Aspergillus niger. The experiment is described as follows: Antifungal activity against Aspergillus niger. The class given is functional, organism-based.
The subject of experiment [3] is Candida albicans. Nature of the experiment: Antimicrobial activity against Candida albicans. The class given is functional, organism-based.
The subject of experiment [4] is Cryptococcus neoformans. The experiment is described as follows: Antimicrobial activity against Cryptococcus neoformans. The class given is functional, organism-based.
Experiment [5] has as its system Staphylococcus aureus. Nature of the experiment: Antibacterial activity against Staphylococcus aureus […] at 100 ug/disk by paper disk method. The class given is functional, organism-based.
The test system of experiment [6] is Bacillus subtilis. Nature of the experiment: Antibacterial activity against Bacillus subtilis NBRC3134 at 100 ug/disk by paper disk method. In kind it is functional, organism-based.
The subject of experiment [7] is Escherichia coli. The experiment is described as follows: Antibacterial activity against Escherichia coli NBRC14237 at 100 ug/disk by paper disk method. The class given is functional, organism-based.
Experiment [8] relates to Salmonella enteritidis. The experiment is described as follows: Antibacterial activity against Salmonella enteritidis NBRC3313 at 100 ug/disk by paper disk method. In kind it is functional, organism-based. The settings on record: Salmonella enterica subsp. enterica serovar Enteritidis.
Experiment [9] has as its system Aspergillus fumigatus. The experiment is described as follows: Antifungal activity against Aspergillus fumigatus assessed as zone of inhibition at 6.25 ug/disk by paper disk method. In kind it is functional. The settings on record: read-out: IZ.
The test system of experiment [10] is Aspergillus niger. Nature of the experiment: Antifungal activity against Aspergillus niger at 50 ug/disk by paper disk method. In kind it is functional, organism-based.
In experiment [11] the test system is Candida albicans. Nature of the experiment: Antimicrobial activity against Candida albicans at 50 ug/disk by paper disk method. In kind it is functional, organism-based.
In experiment [12] the test system is Cryptococcus neoformans. The experiment is described as follows: Antimicrobial activity against Cryptococcus neoformans at 50 ug/disk by paper disk method. In kind it is functional, organism-based.
For experiment [13], the system named is Staphylococcus aureus. Nature of the experiment: Antibacterial activity against Staphylococcus aureus […] assessed as zone of inhibition at 50 ug/disk by paper disk method. In kind it is functional, organism-based.
Experiment [14] relates to Bacillus subtilis. The experiment is described as follows: Antibacterial activity against Bacillus subtilis NBRC3134 assessed as zone of inhibition at 50 ug/disk by paper disk method. In kind it is functional, organism-based.
For experiment [15], the system named is Escherichia coli. Nature of the experiment: Antibacterial activity against Escherichia coli NBRC14237 assessed as zone of inhibition at 50 ug/disk by paper disk method. In kind it is functional, organism-based.
The subject of experiment [16] is Salmonella enteritidis. The experiment is described as follows: Antibacterial activity against Salmonella enteritidis NBRC3313 assessed as zone of inhibition at 50 ug/disk by paper disk method. In kind it is functional, organism-based. As to conditions: Salmonella enterica subsp. enterica serovar Enteritidis.

`CC[C@H](C)[C@H]1C(=O)N[C@@H](CC(=O)OC)C(=O)N(C)[C@@H](C(C)C)C(=O)N[C@@H](CC(C)C)C(=O)O[C@@H](C)C(=O)N2CCCC[C@H]2C(=O)N(C)[C@@H](C(C)C)C(=O)N[C@@H](C(C)C)C(=O)N(C)[C@@H](CC(=O)OC)C(=O)N(C)[C@@H]([C@@H](C)CC)C(=O)N1C` (cyclo(D(OMe)[NMeV]L[Lac][Pip][NMeV]V[NMeD](OMe)[NMeI][NMeI])): the result in experiment [1], in [2], in experiment [3], in experiment [4], in experiment [5] and in experiment [6] was inactive. Moreover, the result in experiment [7] and in [8] was inactive.

Turning to `CC[C@H](C)[C@H]1C(=O)N[C@@H](CC(=O)O)C(=O)N(C)[C@@H](C(C)C)C(=O)N[C@@H](CC(C)C)C(=O)O[C@@H](C)C(=O)N2CCCC[C@H]2C(=O)N(C)[C@@H](C(C)C)C(=O)N[C@@H](C(C)C)C(=O)N(C)[C@@H](CC(=O)O)C(=O)N(C)[C@@H]([C@@H](C)CC)C(=O)N1C` [EUJAVANICIN A] (cyclo(D[NMeV]L[Lac][Pip][NMeV]V[NMeD][NMeI][NMeI])), in [9], the zone of inhibition at 6.25 µg/disc amounted to 23 mm. The outcome in experiment [10], in experiment [11], in experiment [12], in [5], in experiment [6] and in [7] was inactive. Further, the outcome in experiment [8], in experiment [13], in [14], in experiment [15] and in [16] was inactive.
